Experimental findings from ChEMBL document CHEMBL5131378, “Kinases as Potential Therapeutic Targets for Anti-coronaviral Therapy” (J Med Chem, 2022) are described below.

The structures appear in SMILES notation. Some results are limits rather than exact numbers.

Data set [1] concerns Middle East respiratory syndrome-related coronavirus. The data set can be described thus: Antiviral activity against MERS-CoV. In kind it is functional, organism-based.
In data set [2] the test system is SARS-CoV-2. In kind it is functional, organism-based, Vero E6. The following applies: Severe acute respiratory syndrome coronavirus 2, Vero C1008, 72 h.
The subject of data set [3] is SARS-CoV-2. Type of data set: functional, Severe acute respiratory syndrome coronavirus 2, Vero E6. The following applies: time 72 hrs.
Data set [4] concerns the target Replicase polyprotein 1ab (Severe acute respiratory syndrome coronavirus 2, UniProt P0DTD1). The data set can be described thus: Inhibition of SARS-CoV-2 M-protease.
The test system of data set [5] is SARS-CoV-2. In kind it is functional, organism-based, Vero E6. As to conditions: Severe acute respiratory syndrome coronavirus 2, Vero C1008.
Data set [6] has as its system SARS-CoV-2. In kind it is functional, organism-based. As to conditions: Severe acute respiratory syndrome coronavirus 2, A549-ACE2.
The test system of the next data set is SARS-CoV. The data set can be described thus: Antiviral activity against SARS-CoV in 24 hrs pretreated primary human liver spheroids assessed as reduction in viral load at 400 to 500 nM measured after 48 hrs. In kind it is functional, Severe acute respiratory syndrome-related coronavirus. Also on record: scale not given: the % may be the effect or the level left. The following applies: dose 400-500 nM, time 72 hrs.

For data set [7], the system named is Middle East respiratory syndrome-related coronavirus. The data set can be described thus: Antiviral activity against MERS-CoV infected in 1 hr pretreated human Huh-7 cells assessed as inhibition of viral growth at 10 uM measured after 48 hrs by plaque reduction assay relative to control. In kind it is functional. The following applies: time 49 hrs.
Data set [8] deals with SARS-CoV-2. Briefly: microbe, parasite or virus in culture. The following applies: Severe acute respiratory syndrome coronavirus 2.
In another data set the test system is Murine coronavirus. Briefly: Antiviral activity against mCoV. Type of data set: functional, organism-based.
Another data set is described as follows: in vitro. The following applies: human, Huh-7 cells.
The subject of data set [9] is Middle East respiratory syndrome-related coronavirus. The data set can be described thus: microbe, parasite or virus in culture. The following applies: Huh-7, 72 h.
The subject of another data set is Human coronavirus 229E. Briefly: Antiviral activity against hCoV-229e at 4 uM assessed as reduction of viral RNA relative to control. Type of data set: functional. More on the design: scale not given: the % may be the effect or the level left.

As to `Cn1nc(C(C)(C)C)cc1NC(=O)Nc1ccc(Oc2ccncc2)cc1`, in [1], the half-maximal inhibitory concentration (IC50) was 4630 nM.

In the data set with SARS-CoV-2 [2], `CCN1CCN(Cc2ccc(Nc3ncc(F)c(-c4cc(F)c5nc(C)n(C(C)C)c5c4)n3)nc2)CC1` [ABEMACICLIB] had an EC50 of 2160 nM. The molecule also displayed an Activity with SARS-CoV-2 [3] of 60%.

As for `O=C1Cc2c([nH]c3ccc([N+](=O)[O-])cc23)-c2ccccc2N1` [ALSTERPAULLONE], the half-maximal inhibitory concentration (IC50) in [4] was 1500 nM.

For `Cc1cccc(/C=N/Nc2cc(N3CCOCC3)nc(OCCc3ccccn3)n2)c1` [APILIMOD], the half-maximal inhibitory concentration (IC50) with SARS-CoV-2 [5] was less than 80 nM; in the data set with SARS-CoV-2 [6], 7 nM.

`CC(C)Cn1ncc2cc(Oc3ccc(F)cc3F)c(C(=O)NCCN(C)C)cc21` [ARRY-797] registered a half-maximal inhibitory concentration (IC50) in data set [1] of 913 nM.

Turning to `CNS(=O)(=O)Nc1nccc(Cc2c(C)c3ccc(Oc4ncccn4)cc3oc2=O)c1F` [AVUTOMETINIB], in the data set on SARS-CoV-2 [2], the half-inhibitory concentration (IC50) was determined as 600 nM.

For `CCS(=O)(=O)N1CC(CC#N)(n2cc(-c3ncnc4[nH]ccc34)cn2)C1` [BARICITINIB], in the data set on SARS-CoV, the Activity amounted to 30%.

Take `CCc1cnn2c(NCc3ccc[n+]([O-])c3)cc(N3CCCC[C@H]3CCO)nc12` [DINACICLIB]: the IC50 in the data set with SARS-CoV-2 [5] is 270 nM; in the data set with SARS-CoV-2 [6] it was 32 nM.

As for `CO[C@H]1C[C@@H]2CC[C@@H](C)[C@@](O)(O2)C(=O)C(=O)N2CCCC[C@H]2C(=O)O[C@H]([C@H](C)C[C@@H]2CC[C@@H](OCCO)[C@H](OC)C2)CC(=O)[C@H](C)/C=C(\C)[C@@H](O)[C@@H](OC)C(=O)[C@H](C)C[C@H](C)/C=C/C=C/C=C/1C` [EVEROLIMUS], the inhibition at 10 µM in data set [7] was found to be 56%.

Regarding `CCc1nc(C(N)=O)c(Nc2ccc(N3CCC(N4CCN(C)CC4)CC3)c(OC)c2)nc1NC1CCOCC1` [GILTERITINIB], the 50% inhibitory concentration (IC50) (in data set [1]; with SARS-CoV-2 [8]) was 807 nM in each case.

In turn, `CC(C)=CCC[C@](C)(O)[C@H]1CC[C@]2(C)[C@@H]1[C@H](O)C[C@@H]1[C@@]3(C)CC[C@H](O)C(C)(C)[C@@H]3[C@@H](O[C@@H]3O[C@H](CO)[C@@H](O)[C@H](O)[C@H]3O[C@@H]3O[C@H](CO)[C@@H](O)[C@H](O)[C@H]3O)C[C@]12C` [GINSENOSIDE RF] yielded a half-inhibitory concentration (IC50) in the data set with Murine coronavirus of 10000 nM.

Turning to `O=C1Cc2c([nH]c3ccc(Br)cc23)-c2ccccc2N1` [KENPAULLONE], the IC50 in data set [4] amounted to 1500 nM.

The molecule `NC(=O)N1CCC(CC(=O)N2CCC([C@H]3c4ncc(Br)cc4CCc4cc(Cl)cc(Br)c43)CC2)CC1` [LONAFARNIB] yielded an IC50 in the data set on SARS-CoV-2 [2] of 4990 nM.

Consider `CCCCCCCCCCCCCCCCOP(=O)([O-])OCC[N+](C)(C)C` [MILTEFOSINE], for which the inhibition at 10 µM in data set [7] is 28%.

With `COc1ncc(-c2ccc3nccc(-c4ccnnc4)c3c2)cc1NS(=O)(=O)c1ccc(F)cc1F` [OMIPALISIB], in the data set with SARS-CoV-2 [2], the midpoint of inhibition, the IC50, lay at 14 nM.

In turn, `C=CC(=O)Nc1cc(Nc2nccc(-c3cn(C)c4ccccc34)n2)c(OC)cc1N(C)CCN(C)C` [OSIMERTINIB] registered an IC50 in the data set on SARS-CoV-2 [2] of 3980 nM.

In data set [1], `CC(C)(C)Cn1c(N)nc2ccc(-c3[nH]c(C(C)(C)C)nc3-c3ccc(F)cc3)nc21` [RALIMETINIB] registered an IC50 of 873 nM.

In “in vitro”, `CN1CCN(CCOc2cc(OC3CCOCC3)c3c(Nc4c(Cl)ccc5c4OCO5)ncnc3c2)CC1` [SARACATINIB] came in with a cytotoxic concentration (CC50) of more than 50000 nM. The same molecule came in with a concentration giving a half-maximal response (EC50) in [9] of 2900 nM.

Consider `C[S+]([O-])c1ccc(-c2nc(-c3ccc(F)cc3)c(-c3ccncc3)[nH]2)cc1` (configuration not stated) [SB-203580], for which, in the data set with Human coronavirus 229E, the Activity is 60%.

Molecule `O=C(O)c1ccc2c(c1)nc(Nc1cccc(Cl)c1)c1ccncc12` [SILMITASERTIB] returned a 50% inhibitory concentration (IC50) with SARS-CoV-2 [8] of 1280 nM.

Regarding `CO[C@H]1C[C@@H]2CC[C@@H](C)[C@@](O)(O2)C(=O)C(=O)N2CCCC[C@H]2C(=O)O[C@H]([C@H](C)C[C@@H]2CC[C@@H](O)[C@H](OC)C2)CC(=O)[C@H](C)/C=C(\C)[C@@H](O)[C@@H](OC)C(=O)[C@H](C)C[C@H](C)/C=C/C=C/C=C/1C` [SIROLIMUS], the inhibition at 10 µM in data set [7] came out at 40%.

As to `COC[C@H]1OC(=O)c2coc3c2[C@@]1(C)C1=C(C3=O)[C@@H]2CCC(=O)[C@@]2(C)C[C@H]1OC(C)=O` [WORTMANNIN], the inhibition at 10 µM in data set [7] came to 40%.
